Assay results published in ChEMBL document CHEMBL1201862, “PubChem BioAssay data set” (2004).
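Dose response: 5 concentrations. Exposure: 48 h. Format: 96-well plates. Endpoint: linear interpolation; highest concentration if not reached. Here, GI50 denotes the concentration required for 50% inhibition of growth.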 Calls of active or inactive are those of the source. Rule as the data show it: active = GI50 up to about 1.1 µM and inactive = higher. Residues, ends and D or L forms follow the SMILES beside them. *: point of attachment. Boc = CC(C)(C)OC(=O)*; Bz = O=C(c1ccccc1)*

What was measured:
Experiment in all cases: DTP human tumour cell line panel, 48 h
SF-268 = system: SF-268
CAKI-1 = system: CAKI-1
KM12 = system: KM12
IGROV-1 = system: IGROV-1
LOX IMVI = system: LOX IMVI
SK-MEL-28 = system: SK-MEL-28
HL-60 = system: HL-60
HCT-15 = system: HCT-15
SF-295 = system: SF-295
OVCAR-5 = system: OVCAR-5
786-0 = system: 786-0
HCC 2998 = system: HCC 2998
SW-620 = system: SW-620
DMS-114 = system: DMS-114
A549 = system: A549
UO-31 = system: UO-31
NCI-H23 = system: NCI-H23
OVCAR-4 = system: OVCAR-4
MDA-MB-231 = system: MDA-MB-231
SNB-19 = system: SNB-19

| Structure (SMILES) | GI50 (SF-268) | GI50 (CAKI-1) | GI50 (KM12) | GI50 (IGROV-1) | GI50 (LOX IMVI) | GI50 (SK-MEL-28) | GI50 (HL-60) | GI50 (HCT-15) | GI50 (SF-295) | GI50 (OVCAR-5) | GI50 (786-0) | GI50 (HCC 2998) | GI50 (SW-620) | GI50 (DMS-114) | GI50 (A549) | GI50 (UO-31) | GI50 (NCI-H23) | GI50 (OVCAR-4) | GI50 (MDA-MB-231) | GI50 (SNB-19) |
| --- | --- | --- | --- | --- | --- | --- | --- | --- | --- | --- | --- | --- | --- | --- | --- | --- | --- | --- | --- | --- |
| CCOC(=O)/C(Br)=C1/OC(=O)c2ccccc2-c2ccccc21.CCOC(=O)/C(Br)=C1\OC(=O)c2ccccc2-c2ccccc21 | 30.7 µM (inactive) | 16.4 µM (inactive) | 14.8 µM (inactive) | 18.6 µM (inactive) | 16.5 µM (inactive) | 18.6 µM (inactive) | 8.3 µM (inactive) | 19.6 µM | 21.9 µM (inactive) | 20 µM (inactive) | 17.1 µM (inactive) | 21 µM (inactive) | 16.1 µM (inactive) | 15.4 µM (inactive) | 26.3 µM (inactive) | 39.8 µM (inactive) | 21 µM (inactive) | – | – | – |
| Oc1c(O)c(Cc2ccccc2)c(Cc2ccccc2)c(Cc2ccccc2)c1Cc1ccccc1 | > 10 µM (inactive) | > 10 µM (inactive) | > 10 µM (inactive) | > 10 µM (inactive) | > 10 µM (inactive) | > 10 µM (inactive) | > 10 µM (inactive) | > 10 µM | > 10 µM (inactive) | > 10 µM (inactive) | > 10 µM (inactive) | > 10 µM (inactive) | > 10 µM (inactive) | – | > 10 µM (inactive) | > 10 µM (inactive) | > 10 µM (inactive) | > 10 µM (inactive) | > 10 µM (inactive) | > 10 µM (inactive) |
| COc1ccc(/C=C2\CN(C)Cc3c2nc(N)nc3-c2ccc(OC)cc2)cc1 | > 100 µM (inactive) | > 100 µM (inactive) | 61.2 µM (inactive) | > 100 µM (inactive) | 79.4 µM (inactive) | > 100 µM (inactive) | 28.7 µM (inactive) | – | > 100 µM (inactive) | > 100 µM (inactive) | > 100 µM (inactive) | 16.6 µM (inactive) | 57.4 µM (inactive) | 65.3 µM (inactive) | 48.4 µM (inactive) | > 100 µM (inactive) | > 100 µM (inactive) | – | – | > 100 µM (inactive) |
| CCCCCCCCCCCCCC(=S)N/C=C/OC | 43 µM (inactive) | – | 28.2 µM (inactive) | 41.3 µM (inactive) | 20.5 µM (inactive) | 41.7 µM (inactive) | 16.1 µM (inactive) | 22.9 µM | 30.2 µM (inactive) | > 100 µM (inactive) | 30.8 µM (inactive) | 19 µM (inactive) | 35.5 µM (inactive) | 21.7 µM (inactive) | 37.4 µM (inactive) | 31 µM (inactive) | 28.2 µM (inactive) | 32.1 µM (inactive) | – | 45.9 µM (inactive) |
| COC1OC(C)C(OC(=O)C(C)(C)C)C(OS(=O)(=O)c2ccc(C)cc2)C1OS(=O)(=O)c1ccc(C)cc1 (stereo not given) | > 100 µM (inactive) | 5.9 µM (inactive) | > 100 µM (inactive) | > 100 µM (inactive) | – | > 100 µM (inactive) | > 100 µM (inactive) | > 100 µM | > 100 µM (inactive) | > 100 µM (inactive) | > 100 µM (inactive) | > 100 µM (inactive) | > 100 µM (inactive) | > 100 µM (inactive) | > 100 µM (inactive) | > 100 µM (inactive) | > 100 µM (inactive) | > 100 µM (inactive) | – | > 100 µM (inactive) |
| CCCCNC(=NC#N)NCCCC | > 100 µM (inactive) | > 100 µM (inactive) | > 100 µM (inactive) | > 100 µM (inactive) | – | > 100 µM (inactive) | – | 62.4 µM | > 100 µM (inactive) | > 100 µM (inactive) | 49.5 µM (inactive) | > 100 µM (inactive) | 21.3 µM (inactive) | 55.6 µM (inactive) | > 100 µM (inactive) | > 100 µM (inactive) | > 100 µM (inactive) | > 100 µM (inactive) | – | > 100 µM (inactive) |
| Cc1ccc(NC(=O)CC(=O)n2nc(C)c(/N=N/c3cccc(C)c3)c2C)cc1 | 69 µM (inactive) | > 100 µM (inactive) | > 100 µM (inactive) | > 100 µM (inactive) | > 100 µM (inactive) | > 100 µM (inactive) | 38 µM (inactive) | > 100 µM | > 100 µM (inactive) | > 100 µM (inactive) | > 100 µM (inactive) | > 100 µM (inactive) | > 100 µM (inactive) | – | > 100 µM (inactive) | > 100 µM (inactive) | > 100 µM (inactive) | > 100 µM (inactive) | > 100 µM (inactive) | 71.1 µM (inactive) |
| COc1ccc2c(c1OC)C(=O)C2 | > 100 µM (inactive) | – | > 100 µM (inactive) | – | > 100 µM (inactive) | > 100 µM (inactive) | > 100 µM (inactive) | > 100 µM | > 100 µM (inactive) | – | > 100 µM (inactive) | – | > 100 µM (inactive) | > 100 µM (inactive) | > 100 µM (inactive) | > 100 µM (inactive) | > 100 µM (inactive) | > 100 µM (inactive) | – | > 100 µM (inactive) |
| N#CCCN(c1ccc(/C=N/c2ccccc2)cc1)S(=O)(=O)c1ccccc1 | > 100 µM (inactive) | > 100 µM (inactive) | 16.5 µM (inactive) | > 100 µM (inactive) | – | > 100 µM (inactive) | 31.1 µM (inactive) | – | 12.4 µM (inactive) | – | > 100 µM (inactive) | 5.22 µM (inactive) | > 100 µM (inactive) | > 100 µM (inactive) | > 100 µM (inactive) | 17 µM (inactive) | > 100 µM (inactive) | > 100 µM (inactive) | – | > 100 µM (inactive) |
| COC1(C)CC2N(C(=O)c3ccccc3)N=C(c3ccccc3)CC2(C)O1 (stereo not given) | > 100 µM (inactive) | > 100 µM (inactive) | > 100 µM (inactive) | > 100 µM (inactive) | > 100 µM (inactive) | – | > 100 µM (inactive) | > 100 µM | > 100 µM (inactive) | > 100 µM (inactive) | > 100 µM (inactive) | 96.4 µM (inactive) | > 100 µM (inactive) | > 100 µM (inactive) | > 100 µM (inactive) | > 100 µM (inactive) | – | > 100 µM (inactive) | – | > 100 µM (inactive) |
| CC(=O)OC1COC(N2C(=O)C(=O)c3c(C)cc(Cl)nc32)C(OC(C)=O)C1OC(C)=O (stereo not given) | > 100 µM (inactive) | > 100 µM (inactive) | > 100 µM (inactive) | > 100 µM (inactive) | > 100 µM (inactive) | > 100 µM (inactive) | > 100 µM (inactive) | > 100 µM | > 100 µM (inactive) | > 100 µM (inactive) | > 100 µM (inactive) | – | > 100 µM (inactive) | > 100 µM (inactive) | > 100 µM (inactive) | > 100 µM (inactive) | > 100 µM (inactive) | > 100 µM (inactive) | – | > 100 µM (inactive) |
| Cc1nn(-c2nc3ccccc3s2)c2c1C(=O)c1ccccc1-2 | > 100 µM (inactive) | – | > 100 µM (inactive) | > 100 µM (inactive) | > 100 µM (inactive) | > 100 µM (inactive) | > 100 µM (inactive) | > 100 µM | > 100 µM (inactive) | > 100 µM (inactive) | 80.4 µM (inactive) | > 100 µM (inactive) | > 100 µM (inactive) | > 100 µM (inactive) | > 100 µM (inactive) | > 100 µM (inactive) | > 100 µM (inactive) | 26.9 µM (inactive) | – | > 100 µM (inactive) |
| O=C(/C=N/c1ccccc1[S-])c1ccco1.O=C(/C=N/c1ccccc1[S-])c1ccco1.[Zn+2] | 17.9 µM (inactive) | 10 µM (inactive) | 12.8 µM (inactive) | 5.14 µM (inactive) | 7.46 µM (inactive) | 10.7 µM (inactive) | 3.56 µM (inactive) | 8.59 µM | 3.78 µM (inactive) | 16.8 µM (inactive) | 8.3 µM (inactive) | 10 µM (inactive) | 10.9 µM (inactive) | 21.2 µM (inactive) | 3.98 µM (inactive) | 2.99 µM (inactive) | 5.41 µM (inactive) | – | – | 5.78 µM (inactive) |
| NC(=O)N1N=C2c3ccccc3CC[C@@H]2C1c1ccccc1 (stereo not given in full) | > 100 µM (inactive) | > 100 µM (inactive) | > 100 µM (inactive) | > 100 µM (inactive) | > 100 µM (inactive) | > 100 µM (inactive) | 42.9 µM (inactive) | > 100 µM | > 100 µM (inactive) | > 100 µM (inactive) | > 100 µM (inactive) | > 100 µM (inactive) | > 100 µM (inactive) | 77.1 µM (inactive) | > 100 µM (inactive) | > 100 µM (inactive) | > 100 µM (inactive) | – | – | > 100 µM (inactive) |
| COc1ccc(/C=C/c2cc(OC)c(O[Si](C)(C)C(C)(C)C)c(OC)c2)cc1 | > 100 µM (inactive) | > 100 µM (inactive) | > 100 µM (inactive) | > 100 µM (inactive) | – | 6.24 µM (inactive) | – | > 100 µM | – | 64.9 µM (inactive) | > 100 µM (inactive) | > 100 µM (inactive) | > 100 µM (inactive) | 14 µM (inactive) | > 100 µM (inactive) | > 100 µM (inactive) | 17.2 µM (inactive) | 49.9 µM (inactive) | – | > 100 µM (inactive) |
| CC(NC(=O)C(Cc1ccc(OC(=O)c2ccccc2)cc1)NC(=O)OC(C)(C)C)C(=O)NC(Cc1ccccc1)C(=O)NCC(N)=O (stereo not given) (Boc-Y(Bz)AFG-NH2; configuration not given here) | 19.6 µM (inactive) | > 100 µM (inactive) | 35.8 µM (inactive) | 20.4 µM (inactive) | 22 µM (inactive) | 28.7 µM (inactive) | 25.6 µM (inactive) | 53 µM | 18.7 µM (inactive) | 24.4 µM (inactive) | 20.3 µM (inactive) | 20.2 µM (inactive) | 31.1 µM (inactive) | – | 23.4 µM (inactive) | 18.8 µM (inactive) | 23.2 µM (inactive) | 20.9 µM (inactive) | 19.4 µM (inactive) | 18.6 µM (inactive) |
